{"source": "paper PMC12292835", "about": "“Amylin Receptor 1 Mutagenesis Revealed a Potential Role of Calcitonin Serine 29 in Receptor Interaction” (Biomedicines, 2025)", "key": {"amylin receptors": {"test_system": "amylin receptors", "settings": "mutated human amylin, cell-based system; cited from earlier work", "from_the_text": "Receptor–ligand interaction studies with alanine-scanning mutagenesis have been reported for amylin receptors. Lee et al. first introduced alanine-scanning mutagenesis to calcitonin and AC413 peptides and examined the role of each amino acid in the interaction with amylin receptor 1 ECD [20]. They reported critical amino acids of peptide ligands for amylin receptor 1 ECD binding. Their results were supported by the following structural studies with the calcitonin receptor ECD and salmon calcitonin fragments. Recently, Lee S introduced alanine-scanning mutagenesis to a rat amylin ..."}, "[1]": {"biological_target": "T1, wild-type amylin receptor 1 ECD (Homo sapiens, UniProt O60894+P30988)", "T1 construct": "pHLsec/hRAMP1.24–111-(GSA)3-hCTR.34–141-H6 (H-pSL005); H6 (hexahistidine) (C); made in house; host or cells: HEK293 (transient transfection, secreted, N-glycosylated)", "T1 sequence (O60894 24-111)": "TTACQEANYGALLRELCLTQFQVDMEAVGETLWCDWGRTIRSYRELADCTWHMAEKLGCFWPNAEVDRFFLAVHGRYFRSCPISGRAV", "T1 sequence (P30988 34-141)": "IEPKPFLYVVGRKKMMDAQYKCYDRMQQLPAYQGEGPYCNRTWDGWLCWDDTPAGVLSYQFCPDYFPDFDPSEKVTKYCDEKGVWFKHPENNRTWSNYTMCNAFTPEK", "test": "Competition binding assay with non-labeled sCT(22–32), WT", "settings": "competition with 10 nM FITC-sCT(22–32), receptor ECD 81 nM, 1 hour, anisotropy", "protocol": "(§1) The overall procedure of the FP binding assay with a saturation binding format was previously described. A total of 10 nM FITC-labeled sCT(22–32) and 10 nM FITC-labeled AC413(6–25) with Y25P mutation were used for the receptor–ligand binding assay. For the saturation binding format, the non-linear regression curves were generated by using user-defined equations that were previously described for affinity calculation. FITC-labeled peptide probes were incubated for 1 h at room temperature with the purified receptor protein prior to fluorescence signal measurement. A BioTek Synergy H1 microplate reader (Agilent, Santa Clara, CA, USA) was used to evaluate fluorescence polarization/anisotropy. […] When total fluorescence intensity of the FITC-labeled probes was altered with receptor binding by more than 10% from the starting fluorescence value, the anisotropy was adjusted to reflect the fluorescence change as previously described. […] PRISM 5.0 was fully functional, with the user-defined equations used predicting KD values from fluorescence polarization/anisotropy. […]\n(§2) The mixture of the competitive peptide with varying concentrations, 10 nM FITC -sCT(22 –32), and the receptor ECD protein with the concentration described earlier was incubated for 1 hour. The anisotropy signal was measured by using a BioTek Synergy H1 microplate reader (Agilent, Santa Clara, CA, USA). […]"}, "[2]": {"biological_target": "T2, amylin receptor 1 ECD with the E123D mutation (Homo sapiens, UniProt O60894+P30988, E123D)", "T2 construct": "pHLsec/hRAMP1.24–111-(GSA)3-hCTR.34–141.E123D-H6 (D-pJJ001); H6 (hexahistidine) (C); made in house; host or cells: HEK293 (transient transfection, secreted, N-glycosylated)", "T2 sequence (O60894 24-111)": "as the sequence (O60894 24-111) above", "T2 sequence (P30988 34-141 E123D)": "as the sequence (P30988 34-141) above, with E90D counted along it", "test": "Competition binding assay with non-labeled sCT(22–32), E123D", "settings": "competition with 10 nM FITC-sCT(22–32), receptor ECD E123D 53 nM, 1 hour, anisotropy", "protocol": "as §1, §2"}, "[3]": {"biological_target": "T3, amylin receptor 1 ECD with the E123A mutation (Homo sapiens, UniProt O60894+P30988, E123A)", "T3 construct": "pHLsec/hRAMP1.24–111-(GSA)3-hCTR.34–141.E123A-H6 (D-pJJ004); H6 (hexahistidine) (C); made in house; host or cells: HEK293 (transient transfection, secreted, N-glycosylated)", "T3 sequence (O60894 24-111)": "as the sequence (O60894 24-111) above", "T3 sequence (P30988 34-141 E123A)": "as the sequence (P30988 34-141) above, with E90A counted along it", "test": "Competition binding assay with non-labeled sCT(22–32), E123A", "settings": "competition with 10 nM FITC-sCT(22–32), receptor ECD E123A 365 nM, 1 hour, anisotropy", "protocol": "as §1, §2"}, "[4]": {"test_system": "calcitonin receptor N135A, phosphorylation of extracellular signal-regulated kinase (ERK)", "settings": "cited from earlier work", "protocol": "(§3) Several receptor–ligand interaction studies introducing mutagenesis to calcitonin and amylin receptors are also available. Among these previous reports, an extensive receptor–ligand interaction study was reported where alanine-scanning mutagenesis was applied to the upper segment of transmembrane helix 1 (TM1) of the calcitonin receptor and its extension into the receptor ECD [31]. Although the study focused on TM1, some residues of calcitonin receptor ECD were mutated and were tested for peptide ligand interaction. When the N135 residue was mutated to alanine, the ..."}, "[5]": {"test_system": "calcitonin receptor N135A, cAMP production", "settings": "cited from earlier work", "protocol": "as §3"}, "[6]": {"settings": "cited from earlier work", "from_the_text": "(§4) Due to the inherent nature of the calcitonin receptor as the main component of the functional amylin receptor, a calcitonin peptide is used as an agonist for amylin receptors. […] Accordingly, salmon calcitonin is well-characterized as a dual agonist for calcitonin and amylin receptors and is commonly used for research targeting amylin receptors."}, "[7]": {"test_system": "amylin receptor 1 with D101A", "settings": "cAMP production, amylin receptor 1 activation; cited from earlier work", "protocol": "(§5) Gingell et al. addressed the receptor interaction with human calcitonin and rat amylin by introducing mutations to the peptide-binding pocket of the calcitonin receptor and amylin receptor 1 ECDs. The peptide potency for calcitonin receptor and amylin receptor 1 activation was investigated by measuring cAMP production. Multiple residues located in the peptide-binding pocket were tested for peptide-mediated receptor activation. They reported the mutational effects of D101A and N124A that were used in the current study. Consistent with our binding results, the D101A mutation markedly decr ..."}, "[8]": {"test_system": "calcitonin receptor D101A", "settings": "cAMP production, calcitonin receptor activation, cited from earlier work", "protocol": "as §5"}, "[9]": {"test_system": "calcitonin receptor and amylin receptor 1 with N124A", "settings": "cAMP production, in words; cited from earlier work", "from_the_text": "The N124 residue of the calcitonin receptor appeared dispensable for amylin receptor 1 activation mediated by calcitonin or amylin. The affinity decreases for receptor ECD by 8-fold and more may be insufficient to produce the potency decrease in the activation of the full-length calcitonin and amylin rec ..."}, "[10]": {"test_system": "calcitonin receptor N135A", "settings": "cited from earlier work", "protocol": "as §3"}, "[11]": {"test_system": "human calcitonin and amylin receptors", "settings": "in words; cited from earlier work", "from_the_text": "as §4"}, "pancreatic β-cells": {"test_system": "pancreatic β-cells", "settings": "in words; cited from earlier work", "from_the_text": "as §4"}}, "note": "Where no end group is shown, it is not given here.", "data": [{"substance": "V17A: human amylin with mutation V17A (KCNTATCATQRLANFLAHSSNNFGAILSSTNVGSNTY; ends and bridges not checked; cysteine pairing not given here; UniProt P10997 34-70, looked up, variant V17A)", "values": [{"measurement": "amylin receptor activation potency", "setting": "amylin receptors", "result": "significantly increased the amylin receptor activation potency"}]}, {"substance": "A5S: human amylin with mutation A5S (KCNTSTCATQRLANFLVHSSNNFGAILSSTNVGSNTY; ends and bridges not checked; cysteine pairing not given here; UniProt P10997 34-70, looked up, variant A5S)", "values": [{"measurement": "amylin receptor activation potency", "setting": "amylin receptors", "result": "significantly increased the amylin receptor activation potency"}]}, {"substance": "YPRTNTGSGTP-NH2 [non-labeled sCT(22–32)]", "values": [{"measurement": "Ki", "setting": "[1]", "result": 0.891, "unit": "µM"}, {"measurement": "Ki", "setting": "[2]", "result": 1.23, "unit": "µM"}, {"measurement": "Ki", "setting": "[3]", "result": 2.51, "unit": "µM"}]}, {"substance": "calcitonin", "values": [{"measurement": "decrease of functional affinity (pKA)", "setting": "[4]", "result": "less than 10 fold"}, {"measurement": "decrease of functional affinity (pKA)", "setting": "[5]", "result": "less than 10 fold"}]}, {"substance": "rat amylin: rodent (rat/mouse) amylin", "values": [{"measurement": "aggregation propensity", "setting": "[6]; rodent (rat/mouse) amylin versus human amylin", "result": "less propensity for forming aggregates than human amylin"}, {"measurement": "decrease of potency", "setting": "[7]", "result": 68, "unit": "fold"}, {"measurement": "effect of D101A on potency", "setting": "[8]; in words", "result": "not significantly altered"}, {"measurement": "effect of N124A on potency", "setting": "[9]", "result": "did not significantly change the potency"}]}, {"substance": "human calcitonin: peptide hormone", "values": [{"measurement": "effect of N135A on binding", "setting": "[10]", "result": "abolished the binding"}, {"measurement": "decrease of potency", "setting": "[8]; D101A", "result": 17, "unit": "fold"}, {"measurement": "effect of N124A on potency", "setting": "[9]", "result": "did not significantly change the potency"}]}, {"substance": "salmon calcitonin", "values": [{"measurement": "binding and receptor activation potency", "setting": "[11]", "result": "strong receptor activation potency"}]}, {"substance": "Q10A: human amylin with mutation Q10A (KCNTATCATARLANFLVHSSNNFGAILSSTNVGSNTY; ends and bridges not checked; cysteine pairing not given here; UniProt P10997 34-70, looked up, variant Q10A)", "values": [{"measurement": "amylin receptor activation potency", "setting": "amylin receptors", "result": "significantly increased the amylin receptor activation potency"}]}, {"substance": "human amylin: peptide hormone secreted from pancreatic β-cells, 37 amino acids (KCNTATCATQRLANFLVHSSNNFGAILSSTNVGSNTY; not fully specified (C-terminus, bridges); cysteine pairing not given here; UniProt P10997 34-70, looked up)", "values": [{"measurement": "effect of aggregates on pancreatic β-cells", "setting": "pancreatic β-cells", "result": "harm pancreatic β-cells"}, {"measurement": "aggregation", "setting": "[6]; human amylin", "result": "reported to form aggregates"}]}, {"substance": "porcine calcitonin: peptide hormone (CSNLSTCVLSAYWRNLNNFHRFSGMGFGPETP; ends and bridges not checked; cysteine pairing not given here; UniProt P01259 1-32, looked up)", "values": [{"measurement": "effect of N135A on binding", "setting": "[10]", "result": "abolished the binding"}]}]}
